Patent US8008286B2, “Method for treatment of neuropathic pain” (University of Virginia Patent Foundation, priority 2006, dated 2011)

Legend:
[1] = biological target: T1, SPHK2 enzyme (Homo sapiens, UniProt Q9NRA0); assay: Phosphorylation by the SPHK2 enzyme in vitro; type: biochemical; conditions: separated isomers of VPC01091, in vitro
T1 sequence (Q9NRA0 1-654): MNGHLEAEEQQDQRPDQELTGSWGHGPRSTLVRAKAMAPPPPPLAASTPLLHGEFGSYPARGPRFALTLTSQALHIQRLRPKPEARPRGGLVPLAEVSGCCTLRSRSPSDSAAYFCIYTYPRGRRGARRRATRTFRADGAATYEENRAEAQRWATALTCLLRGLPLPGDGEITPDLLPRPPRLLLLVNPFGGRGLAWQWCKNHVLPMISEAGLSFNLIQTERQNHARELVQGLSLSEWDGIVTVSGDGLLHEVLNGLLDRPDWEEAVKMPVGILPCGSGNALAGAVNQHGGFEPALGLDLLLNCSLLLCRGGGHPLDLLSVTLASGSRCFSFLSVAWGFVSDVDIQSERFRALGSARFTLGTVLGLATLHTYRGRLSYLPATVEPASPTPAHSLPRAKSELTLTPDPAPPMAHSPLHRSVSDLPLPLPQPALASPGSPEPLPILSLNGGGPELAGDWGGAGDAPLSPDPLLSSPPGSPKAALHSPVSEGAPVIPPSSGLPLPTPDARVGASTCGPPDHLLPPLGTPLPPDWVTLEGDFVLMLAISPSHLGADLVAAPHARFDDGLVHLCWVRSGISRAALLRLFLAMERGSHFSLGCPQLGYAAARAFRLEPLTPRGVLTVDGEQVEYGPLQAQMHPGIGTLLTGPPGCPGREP
Method: These compounds can be prepared as a mixture and separated by chromatography. Exemplary conditions for separation are as follows: Column: Chiralpak AD 4.6 mm ID×250 mm, Mobile Phase: Hex/EtOH/MeOH/DEA=95/2.5/2.5/0.03, Flow Rate: 1 mL/min, Detector: UV 220 nm, Column Temp: 40° C., or Column Temp: 25° C.

[2] = system: sciatic nerve injury (CCI) model; assay: Sciatic nerve injury (CCI) model of neuropathic pain, mechanical allodynia; type: in vivo, rat; conditions: rats, 3 mg/kg p.o. once a day for 5 days, started 2 weeks after nerve injury
Text: In these models, oral treatment with VPC01091-D was started 2 weeks following nerve injury, once the pain was established. A control group received only vehicle. Following once a day dosing for 5 days, […].) reversed mechanical allodynia by 42±8% in the CCI model. (See FIG. 5).

[3] = system: spinal nerve injury (SNL) model; assay: Spinal nerve injury (SNL) model of neuropathic pain, mechanical allodynia; type: in vivo, rat; conditions: rats, 3 mg/kg p.o., started 2 weeks after nerve injury
Text: In these models, oral treatment with VPC01091-D was started 2 weeks following nerve injury, once the pain was established. A control group received only vehicle.

[4] = system: rat with a crushed sciatic nerve; assay: Pain assay, 'trauma' model of neuropathic pain (crushed sciatic nerve), paw withdrawal latency with heat lamp; type: in vivo; conditions: rats, 10 mg/kg IP once on day 0, tested each day
Method: Test compound, VPC01091 (Drug T, mixture of all isomers), was dissolved in 2% hydroxypropyl beta-cyclodextrin in water and administered to the test group of laboratory rats. The vehicle (Drug V: 2% hydroxypropyl beta-cyclodextrin in water) was administered to the control group of laboratory rats. Each group included 11 animals.
The identities of ‘Drug T’ and ‘Drug V’ were maintained in secret to prevent bias. The test solutions (test compound or vehicle) were intraperitoneally (IP) administered once (day 0), the dose was 10 mg/kg body weight. On day 0, each of the 22 animals was anesthetized, the sciatic nerve bundle on the right side exposed surgically, and crushed mechanically. This is known as the ‘trauma’ model of neuropathic pain. The animals were tested each day for the time required to lift either paw after illumination with small heat lamp.

SMILES	phosphorylated by the SPHK2 enzyme in vitro [1]	reversed mechanical allodynia [2] [%]	analgesic activity [3] [%]	analgesic effect (PWL time increases after injury), only on the affected side [4]	development of thermal hyperalgesia in the affected (crushed nerve) paw (PWL) [4]
CCCCCCCCc1ccc([C@H]2CC[C@](N)(CO)C2)cc1 [VPC01091-D]	not phosphorylated	42±8	50±10	–	–
CCCCCCCCc1ccc(C2CCC(N)(CO)C2)cc1 (centres unmarked) [VPC01091, (1-amino-3-(4-octylphenyl)cyclopentyl)methanol]	–	–	–	exhibited an analgesic effect	prevented the development of thermal hyperalgesia
